According to patent US20210045385A1, “PYRIDAZINONE-SUBSTITUTED KETOXIMES AS HERBICIDES” (FMC Corporation, priority 2018, published 2021):

Assays:
Format in all cases: in vivo
[1] = test system: wheat (Triticum aestivum); test: Test A postemergence, visual plant response rating; settings: for Wheat plant response rating: 0 to 100 scale (0 no effect, 100 complete control)
Procedure, shortened: (§1)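 Greenhouse pot test in loam–sand soil mix: compound in a surfactant-containing non-phytotoxic solvent applied preemergence (directed soil spray) or postemergence (one- to two-leaf plants, 2–10 cm). Injury scored visually after ~10 days, 0–100.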

corn (Zea mays) = test: Test A postemergence, visual plant response rating; settings: for Corn plant response rating (0 to 100 scale): 500 g ai/ha, postemergence, 0 is no effect, 100 is complete control; for Corn plant response rating: Postemergence, 125 g ai/ha, 0 to 100 scale (0 no effect, 100 complete control)
Procedure, shortened: as §1

[2] = test system: galium (catchweed bedstraw, Galium aparine); test: Test A postemergence, visual plant response rating; settings: for Galium plant response rating (0 to 100 scale): 500 g ai/ha, postemergence, 0 is no effect, 100 is complete control; for Galium plant response rating: Postemergence, 125 g ai/ha, 0 to 100 scale (0 no effect, 100 complete control)
Procedure, shortened: as §1

[3] = test system: blackgrass (Alopecurus myosuroides); test: Test A postemergence, visual plant response rating; settings: for Blackgrass plant response rating (0 to 100 scale): 500 g ai/ha, postemergence, 0 is no effect, 100 is complete control; for Blackgrass plant response rating: Postemergence, 125 g ai/ha, 0 to 100 scale (0 no effect, 100 complete control)
Procedure, shortened: as §1

[4] = test system: foxtail, green (green foxtail, Setaria viridis); test: Test A postemergence, visual plant response rating; settings: for Foxtail, Green plant response rating (0 to 100 scale): 500 g ai/ha, postemergence, 0 is no effect, 100 is complete control; for Foxtail, Green plant response rating: Postemergence, 125 g ai/ha, 0 to 100 scale (0 no effect, 100 complete control)
Procedure, shortened: as §1

[5] = test system: ragweed (common ragweed, Ambrosia elatior); test: Test A postemergence, visual plant response rating; settings: for Ragweed plant response rating (0 to 100 scale): 500 g ai/ha, postemergence, 0 is no effect, 100 is complete control; for Ragweed plant response rating: Postemergence, 125 g ai/ha, 0 to 100 scale (0 no effect, 100 complete control)
Procedure, shortened: as §1

[6] = test system: pigweed (Amaranthus retroflexus); test: Test A postemergence, visual plant response rating; settings: for Pigweed plant response rating (0 to 100 scale): 500 g ai/ha, postemergence, 0 is no effect, 100 is complete control; for Pigweed plant response rating: Postemergence, 125 g ai/ha, 0 to 100 scale (0 no effect, 100 complete control)
Procedure, shortened: as §1

[7] = test system: barnyardgrass (Echinochloa crus-galli); test: Test A postemergence, visual plant response rating; settings: for Barnyardgrass plant response rating (0 to 100 scale): 500 g ai/ha, postemergence, 0 is no effect, 100 is complete control; for Barnyardgrass plant response rating: Postemergence, 125 g ai/ha, 0 to 100 scale (0 no effect, 100 complete control)
Procedure, shortened: as §1

kochia (Kochia scoparia) [8] = test: Test A postemergence, visual plant response rating; settings: for Kochia plant response rating (0 to 100 scale): 500 g ai/ha, postemergence, 0 is no effect, 100 is complete control; for Kochia plant response rating: Postemergence, 125 g ai/ha, 0 to 100 scale (0 no effect, 100 complete control)
Procedure, shortened: as §1

[9] = test system: Italian ryegrass (Lolium multiflorum); test: Test A postemergence, visual plant response rating; settings: for Ryegrass, Italian plant response rating: 125 g ai/ha, 0 to 100 scale (0 no effect, 100 complete control)
Procedure, shortened: as §1

[10] = test system: foxtail, green (green foxtail, Setaria viridis); test: Test A preemergence, visual plant response rating; settings: for Foxtail, Green plant response rating (0 to 100 scale): approx. 10 days
Procedure, shortened: as §1

[11] = test system: ragweed (common ragweed, Ambrosia elatior); test: Test A preemergence, visual plant response rating; settings: for Ragweed plant response rating (0 to 100 scale): approx. 10 days
Procedure, shortened: as §1

[12] = test system: pigweed (Amaranthus retroflexus); test: Test A preemergence, visual plant response rating; settings: for Pigweed plant response rating (0 to 100 scale): approx. 10 days
Procedure, shortened: as §1

[13] = test system: barnyardgrass (Echinochloa crus-galli); test: Test A preemergence, visual plant response rating; settings: for Barnyardgrass plant response rating (0 to 100 scale): approx. 10 days
Procedure, shortened: as §1

kochia (Kochia scoparia) [14] = test: Test A preemergence, visual plant response rating; settings: for Kochia plant response rating (0 to 100 scale): approx. 10 days
Procedure, shortened: as §1

[15] = test system: Italian ryegrass (Lolium multiflorum); test: Test A preemergence, visual plant response rating; settings: for Ryegrass, Italian plant response rating (0 to 100 scale): approx. 10 days
Procedure, shortened: as §1

rice (Oryza sativa) = test: Test B flooded paddy test, visual plant response rating; settings: 250 g ai/ha, Flood, applied to paddy water, 2-leaf stage, evaluated after 13 to 15 days
Procedure, shortened: (§2)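 Compounds added straight into paddy water of pots flooded to 3 cm, with 2-leaf-stage plants of the four species; water level held throughout.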

[16] = test system: ducksalad (Heteranhera limosa); test: as above; settings: 250 g ai/ha, Flood, applied to paddy water, 2-leaf stage, evaluated after 13 to 15 days
Procedure, shortened: as §2

[17] = test system: sedge, umbrella (small-flower umbrella sedge, Cyperus difformis); test: as above; settings: 250 g ai/ha, Flood, applied to paddy water, 2-leaf stage, evaluated after 13 to 15 days
Procedure, shortened: as §2

[18] = test system: barnyardgrass (Echinochloa crus-galli); test: as above; settings: 250 g ai/ha, Flood, applied to paddy water, 2-leaf stage, evaluated after 13 to 15 days
Procedure, shortened: as §2

[19] = 500 g ai/ha, postemergence, 0 is no effect, 100 is complete control
[20] = 125 g ai/ha, preemergence, 0 to 100 scale, 0 no effect, 100 complete control

Row | Structure (SMILES) | Corn plant response rating (0 to 100 scale) (corn (Zea mays)) | Corn plant response rating (corn (Zea mays)) | Galium plant response rating (0 to 100 scale) [2] | Galium plant response rating [2] | Blackgrass plant response rating (0 to 100 scale) [3] | Blackgrass plant response rating [3] | Foxtail, Green plant response rating (0 to 100 scale) [4] | Foxtail, Green plant response rating [4] | Ragweed plant response rating (0 to 100 scale) [5] | Ragweed plant response rating [5] | Pigweed plant response rating (0 to 100 scale) [6] | Pigweed plant response rating [6] | Barnyardgrass plant response rating (0 to 100 scale) [7] | Barnyardgrass plant response rating [7] | Kochia plant response rating (0 to 100 scale) (kochia (Kochia scoparia) [8]) | Kochia plant response rating (kochia (Kochia scoparia) [8]) | Ryegrass, Italian plant response rating (0 to 100 scale) [9, 19] | Foxtail, Green plant response rating (0 to 100 scale) ([10]; 500 g ai/ha Preemergence) | Ragweed plant response rating (0 to 100 scale) ([11]; 500 g ai/ha Preemergence) | Pigweed plant response rating (0 to 100 scale) ([12]; 500 g ai/ha Preemergence) | also measured
1 | CO/N=C(\c1cccc(C)c1)c1c(O)c(C)nn(C)c1=O [Compound 13] | 10 | 0 | 100 | 90 | 50 | 10 | 60 | 10 | 70 | 70 | 90 | 40 | 50 | 10 | 60 | 20 | 90 | 20 | 100 | 80 | Wheat plant response rating (0 to 100 scale) [1, 19]: 0; Wheat plant response rating ([1]; Postemergence, 125 g ai/ha): 0; Ryegrass, Italian plant response rating ([9]; Postemergence): 80; Foxtail, Green plant response rating (0 to 100 scale) ([10]; 125 g ai/ha Preemergence): 0; Ragweed plant response rating (0 to 100 scale) ([11]; 125 g ai/ha Preemergence): 30; Pigweed plant response rating (0 to 100 scale) ([12]; 125 g ai/ha Preemergence): 90; Barnyardgrass plant response rating (0 to 100 scale) ([13]; 125 g ai/ha Preemergence): 0; Barnyardgrass plant response rating (0 to 100 scale) ([13]; 500 g ai/ha Preemergence): 80; Kochia plant response rating (0 to 100 scale) (kochia (Kochia scoparia) [14]; 125 g ai/ha Preemergence): 30; Kochia plant response rating (0 to 100 scale) (kochia (Kochia scoparia) [14]; 500 g ai/ha Preemergence): 30; Ryegrass, Italian plant response rating (0 to 100 scale) ([15]; 125 g ai/ha Preemergence): 50; Ryegrass, Italian plant response rating (0 to 100 scale) ([15]; 500 g ai/ha Preemergence): 100; Plant response rating, Rice (0 to 100 scale, 0 is no effect, 100 is complete control) (rice (Oryza sativa)): 0; Plant response rating, Ducksalad (0 to 100 scale, 0 is no effect, 100 is complete control) [16]: 0; Plant response rating, Sedge, Umbrella (0 to 100 scale, 0 is no effect, 100 is complete control) [17]: 0; Plant response rating, Barnyardgrass (0 to 100 scale, 0 is no effect, 100 is complete control) [18]: 0
2 | CCO/N=C(/c1ccccc1C)c1c(O)c(C)nn(C)c1=O [Compound 15] | 10 | 0 | 90 | 80 | 60 | 30 | 30 | 10 | 80 | 60 | 30 | 20 | 30 | 10 | 20 | 0 | 80 | 60 | 90 | 70 | Wheat plant response rating (0 to 100 scale) [1, 19]: 0; Wheat plant response rating ([1]; Postemergence, 125 g ai/ha): 0; Ryegrass, Italian plant response rating ([9]; Postemergence): 60; Foxtail, Green plant response rating (0 to 100 scale) ([10]; 125 g ai/ha Preemergence): 0; Ragweed plant response rating (0 to 100 scale) ([11]; 125 g ai/ha Preemergence): 30; Pigweed plant response rating (0 to 100 scale) ([12]; 125 g ai/ha Preemergence): 60; Barnyardgrass plant response rating (0 to 100 scale) ([13]; 125 g ai/ha Preemergence): 30; Barnyardgrass plant response rating (0 to 100 scale) ([13]; 500 g ai/ha Preemergence): 80; Kochia plant response rating (0 to 100 scale) (kochia (Kochia scoparia) [14]; 125 g ai/ha Preemergence): 0; Kochia plant response rating (0 to 100 scale) (kochia (Kochia scoparia) [14]; 500 g ai/ha Preemergence): 10; Ryegrass, Italian plant response rating (0 to 100 scale) ([15]; 125 g ai/ha Preemergence): 70; Ryegrass, Italian plant response rating (0 to 100 scale) ([15]; 500 g ai/ha Preemergence): 80; Plant response rating, Rice (0 to 100 scale, 0 is no effect, 100 is complete control) (rice (Oryza sativa)): 0; Plant response rating, Ducksalad (0 to 100 scale, 0 is no effect, 100 is complete control) [16]: 0; Plant response rating, Sedge, Umbrella (0 to 100 scale, 0 is no effect, 100 is complete control) [17]: 0; Plant response rating, Barnyardgrass (0 to 100 scale, 0 is no effect, 100 is complete control) [18]: 0
3 | CO/N=C(\c1cccc(S(C)(=O)=O)c1)c1c(O)c(C)nn(C)c1=O [Compound 148] | 0 | 0 | 0 | 0 | 0 | 0 | 0 | 0 | 0 | 0 | 0 | 0 | 0 | 0 | 0 | 0 | 0 | 0 | 0 | 0 | Wheat plant response rating ([1]; Postemergence, 500 g ai/ha): 0; Wheat plant response rating (0 to 100 scale) ([1]; Postemergence, approx. 10 days): 0; Ryegrass, Italian plant response rating (0 to 100 scale) ([9]; Postemergence, rate not given, approx. 10 days): 0; Foxtail, Green plant response rating [10, 20]: 0; Ragweed plant response rating [11, 20]: 0; Pigweed plant response rating [12, 20]: 0; Barnyardgrass plant response rating [13, 20]: 0; Barnyardgrass plant response rating (0 to 100 scale) ([13]; 500 g ai/ha Preemergence): 0; Kochia plant response rating (kochia (Kochia scoparia) [14]; [20]): 0; Kochia plant response rating (0 to 100 scale) (kochia (Kochia scoparia) [14]; 500 g ai/ha Preemergence): 0; Ryegrass, Italian plant response rating [15, 20]: 0; Ryegrass, Italian plant response rating (0 to 100 scale) ([15]; 500 g ai/ha Preemergence): 0; Plant response rating, Rice (0 to 100 scale, 0 is no effect, 100 is complete control) (rice (Oryza sativa)): 0; Plant response rating, Ducksalad (0 to 100 scale, 0 is no effect, 100 is complete control) [16]: 0; Plant response rating, Sedge, Umbrella (0 to 100 scale, 0 is no effect, 100 is complete control) [17]: 0; Plant response rating, Barnyardgrass (0 to 100 scale, 0 is no effect, 100 is complete control) [18]: 0
